From US5045549A, “Substituted 4-pyridone 3-carboxylic acid derivatives, method for their production and their pharmaceutical compositions” (priority 1986, dated 1991)
Converted amounts (≈) assume the structure as drawn. Like-named read-outs stand apart in the source and are kept apart here. One block for each compound: values may come before it.

Columns and labels:
[1] = system: Bacteroides fragilis; assay: MIC agar dilution assay, anaerobe bacteria (Table 1); type: cell-based
[2] = system: Bacteroides app.; assay: as above; type: cell-based; conditions: for MIC50: read-out: MIC, 50% Inhibitious; for MIC90: read-out: MIC, 90% Inhibitious
[3] = system: Staphylococcus aureus MSSA; assay: MIC agar dilution assay (Table 1); type: cell-based; conditions: for MIC50: read-out: MIC, 50% Inhibitious; for MIC90: read-out: MIC, 90% Inhibitious
[4] = system: Staphylococcus aureus MRSA; assay: MIC agar dilution assay (Table 1); type: cell-based; conditions: for MIC50: read-out: MIC, 50% Inhibitious; for MIC90: read-out: MIC, 90% Inhibitious
[5] = system: Streptococcus beta-hemolytic; assay: MIC agar dilution assay (Table 1); type: cell-based; conditions: for MIC50: read-out: MIC, 50% Inhibitious; for MIC90: read-out: MIC, 90% Inhibitious
[6] = system: Streptococcus pneumoniae; assay: MIC agar dilution assay (Table 1); type: cell-based
[7] = system: Streptococcus faecalis; assay: MIC agar dilution assay (Table 1); type: cell-based; conditions: Enterococcus faecalis; for MIC50: read-out: MIC, 50% Inhibitious; for MIC90: read-out: MIC, 90% Inhibitious
[8] = system: Escherichia coli 314; assay: animal or person; conditions: for ED50: Escherichia coli, 314, in Mus musculus, 168 h
Description: (§1) In this test, white mice (weight 20±2 g) of Charles River strain CDI received an intraperitoneal injection of a specific amount of a suspension of a bacterial cell culture. The amount is sufficient to cause death of untreated animals within 24-48 hrs. A half hour later, the test animals were administered either an oral or a subcutaneous dosing of the test compound in 0.5 ml of 0.2% starch solution. With streptococcal infections, the test animals received a second dose after 3 hrs. Each test group had 5 animals and each test was performed three times. The ED50 values were calculated on the basis of the survivors at 7 days. An estimate of the oral absorption of the test compounds was determined from the ratio of the ED50 values from the oral and subcutaneous dosings.

[9] = system: Klebsiella pneum. AD; assay: animal or person; conditions: for ED50: Klebsiella, in Mus musculus, 168 h
Description: as §1

[10] = system: Staph. aureus Smith; assay: animal or person; conditions: for ED50: Staphylococcus aureus, in Mus musculus, 168 h
Description: as §1

[11] = system: CITRO DIV; assay: MIC agar dilution assay (Table III); type: cell-based; conditions: 18 CITRO DIV K 82 24; 18 Hrs, 35 Celsius; read-out: MINIMAL INHIBITORY CONC.
Description: (§2) The results are summarized in Table III. |TEST: 406 METHOD: […] |MEDIUM: […] |INCUBATION: 18 Hrs. 35 Celsius | Aerobic: T

[12] = system: ESCH COLI; assay: MIC agar dilution assay (Table III); type: cell-based; conditions: 18 h, read-out: MINIMAL INHIBITORY CONC.
Description: as §2

[13] = system: PROV STUA; assay: MIC agar dilution assay (Table III); type: cell-based; conditions: 17 PROV STUA CMC 83 3; 18 Hrs, 35 Celsius; read-out: MINIMAL INHIBITORY CONC.
Description: as §2

[14] = system: PSEU AERUG; assay: MIC agar dilution assay (Table III); type: cell-based; conditions: 18 h, read-out: MINIMAL INHIBITORY CONC.
Description: as §2

[15] = system: STREP FAEC; assay: MIC agar dilution assay (Table III); type: cell-based; conditions: 18 h, read-out: MINIMAL INHIBITORY CONC.
Description: as §2

[16] = system: MORG MORG; assay: MIC agar dilution assay (Table III); type: cell-based; conditions: 18 h, read-out: MINIMAL INHIBITORY CONC.
Description: (§3) TEST: 406 METHOD: AGAR DIL
(§4) MEDIUM: MUEL-HIN INOCULUM: 1.OE+04 - 5.OE+04
(§5) INCUBATION: 18 Hrs. 35 Celsius

[17] = system: SERRAT MARC; assay: MIC agar dilution assay (Table III); type: cell-based; conditions: 18 h, read-out: MINIMAL INHIBITORY CONC.
Description: as §3, §4, §5

[18] = system: STAPH AUR; assay: MIC agar dilution assay (Table III); type: cell-based; conditions: 18 h, 24 STAPH AUR CMC 83 131, 35 Celsius, read-out: MINIMAL INHIBITORY CONC.
Description: as §3, §4, §5

[19] = system: Staph. aureus SSC-80-32; assay: animal or person; conditions: for ED50: Staphylococcus aureus, SSC8032, in Mus musculus, 168 h
Description: as §1

[20] = system: Strept. pneum. SVI; assay: animal or person; conditions: for ED50: Mus musculus, 168 h
Description: as §1

[21] = system: Strept. pyogenes C 203; assay: animal or person; conditions: for ED50: Streptococcus pyogenes, C203, in Mus musculus, 168 h
Description: as §1

[22] = read-out: MIC, 50% Inhibitious, 50%
[23] = read-out: MIC, 90% Inhibitious, 90%
[24] = o/s, estimate of oral absorption, 10080 min

- MIC50 [1, 22]: 16 µg/mL (≈ 49.9 µM)
- MIC90 [1, 23]: 16 µg/mL (≈ 49.9 µM)
- MIC50 ([2]; Bacteroides app., 50%): 16 µg/mL (≈ 49.9 µM)
SMILES: CCn1cc(C(=O)O)c(=O)c2cc(F)c(N3CCNCC3)nc21 [EC, Enoxacin]

SMILES: CCn1cc(C(=O)O)c(=O)c2cc(F)c(N3CCN(C)CC3)cc21 [PF, Pefloxacin, reference compound]
- MIC50 ([3]; Staphylococcus aureus MSSA, 50%): 0.5 µg/mL (≈ 1.5 µM)
- MIC90 ([3]; Staphylococcus aureus MSSA, 90%): 1 µg/mL (≈ 3 µM)
- MIC50 ([4]; Staphylococcus aureus MRSA, 50%): 0.5 µg/mL (≈ 1.5 µM)
- MIC90 ([4]; Staphylococcus aureus MRSA, 90%): 1 µg/mL (≈ 3 µM)
- MIC50 ([5]; Streptococcus beta-hemolytic, 50%): 4 µg/mL (≈ 12 µM)
- MIC90 ([5]; Streptococcus beta-hemolytic, 90%): 8 µg/mL (≈ 24 µM)
- MIC50 [6, 22]: 4 µg/mL (≈ 12 µM)
- MIC90 [6, 23]: 8 µg/mL (≈ 24 µM)
- MIC50 ([7]; Streptococcus faecalis, 50%): 4 µg/mL (≈ 12 µM)
- MIC90 ([7]; Streptococcus faecalis, 90%): 8 µg/mL (≈ 24 µM)
- ED50 ([8]; po): 0.84 mg/kg
- ED50 ([8]; sc): 0.48 mg/kg
- ED50 ([9]; po): 0.8 mg/kg
- ED50 ([9]; sc): 0.71 mg/kg
- ED50 ([10]; po): 3.8 mg/kg
- ED50 ([10]; sc): 1.4 mg/kg
- MIC [11]: 0.03 µg/mL (≈ 0.09 µM)
- MIC ([12]; 1 ESCH COLI MOR 84 20, 35 Celsius): 0.06 µg/mL (≈ 0.18 µM)
- MIC ([12]; 2 ESCH COLI VGH 84 19, 35 Celsius): 0.06 µg/mL (≈ 0.18 µM)
- MIC ([12]; 3 ESCH COLI CMC 84 50, 35 Celsius): 0.06 µg/mL (≈ 0.18 µM)
- MIC ([12]; 28 ESCH COLI ATCC 25922, 35 Celsius): 0.03 µg/mL (≈ 0.09 µM)
- MIC [13]: 4 µg/mL (≈ 12 µM)
- MIC ([14]; 19 PSEU AERUG K 84 16, 35 Celsius): 4 µg/mL (≈ 12 µM)
- MIC ([14]; 20 PSEU AERUG VGH 84 3, 35 Celsius): 8 µg/mL (≈ 24 µM)
- MIC ([14]; 21 PSEU AERUG CMC 83 20, 35 Celsius): 2 µg/mL (≈ 6 µM)
- MIC ([15]; 25 STREP FAEC UCI 85 30, 35 Celsius): 4 µg/mL (≈ 12 µM)
- MIC ([15]; 26 STREP FAEC VGH 84 69, 35 Celsius): 2 µg/mL (≈ 6 µM)
- MIC ([15]; 27 STREP FAEC CMC 83 120, 35 Celsius): 4 µg/mL (≈ 12 µM)
- MIC ([16]; 14 MORG MORG CMC 84 38, 35 Celsius): 0.03 µg/mL (≈ 0.09 µM)
- MIC ([16]; 15 MORG MORG MOR 84 45, 35 Celsius): 0.03 µg/mL (≈ 0.09 µM)
- MIC ([17]; 10 SERRAT MARC MOR 84 41, 35 Celsius): 0.06 µg/mL (≈ 0.18 µM)
- MIC ([17]; 11 SERRAT MARC CMC 83 74, 35 Celsius): 4 µg/mL (≈ 12 µM)
- MIC [18]: 2 µg/mL (≈ 6 µM)

SMILES: O=C(O)c1cn(C2CC2)c2cc(N3CCNCC3)c(F)cc2c1=O [CF, Ciprofloxacin]
- MIC50 ([3]; Staphylococcus aureus, MSSA): 0.5 µg/mL (≈ 1.51 µM)
- MIC90 ([3]; Staphylococcus aureus, MSSA): 1 µg/mL (≈ 3.02 µM)
- MIC50 ([4]; Staphylococcus aureus, MRSA): 1 µg/mL (≈ 3.02 µM)
- MIC90 ([4]; Staphylococcus aureus, MRSA): 1 µg/mL (≈ 3.02 µM)
- MIC50 ([5]; Streptococcus): 0.5 µg/mL (≈ 1.51 µM)
- MIC90 ([5]; Streptococcus): 1 µg/mL (≈ 3.02 µM)
- MIC50 ([6]; read-out: MIC, 50% Inhibitious): 1 µg/mL (≈ 3.02 µM)
- MIC90 ([6]; read-out: MIC, 90% Inhibitious): 2 µg/mL (≈ 6.04 µM)
- MIC50 [7]: 1 µg/mL (≈ 3.02 µM)
- MIC90 [7]: 2 µg/mL (≈ 6.04 µM)
- MIC50 ([1]; read-out: MIC, 50% Inhibitious): 4 µg/mL (≈ 12.1 µM)
- MIC90 ([1]; read-out: MIC, 90% Inhibitious): 4 µg/mL (≈ 12.1 µM)
- MIC50 ([2]; Bacteroides): 16 µg/mL (≈ 48.3 µM)
- MIC90 ([2]; Bacteroides): 16 µg/mL (≈ 48.3 µM)
- ED50 ([8]; po): 0.52 mg/kg
- ED50 ([8]; sc): 0.07 mg/kg
- Ratio o/s of the ED50 values from oral and subcutaneous administration [8, 24]: 7.4
- ED50 ([9]; po): 0.38 mg/kg
- ED50 ([9]; sc): 0.07 mg/kg
- Ratio o/s of the ED50 values from oral and subcutaneous administration [9, 24]: 4.8
- ED50 ([19]; po): 5.9 mg/kg
- ED50 ([19]; sc): 0.71 mg/kg
- Ratio o/s of the ED50 values from oral and subcutaneous administration [19, 24]: 8.3
- ED50 ([10]; po): 4.3 mg/kg
- ED50 ([10]; sc): 0.64 mg/kg
- Ratio o/s of the ED50 values from oral and subcutaneous administration [10, 24]: 6.7
- ED50 ([20]; po): 47 mg/kg
- ED50 ([20]; sc): 15 mg/kg
- Ratio o/s of the ED50 values from oral and subcutaneous administration [20, 24]: 3.1
- ED50 ([21]; po): 21 mg/kg
- ED50 ([21]; sc): 4 mg/kg
- Ratio o/s of the ED50 values from oral and subcutaneous administration [21, 24]: 5.3

SMILES: CN1CC2CC1CN2c1cc2c(cc1F)c(=O)c(C(=O)O)cn2-c1ccc(F)cc1 (stereo not shown) [Example 5, 6-Fluoro-1-(4-fluorophenyl)-1,4-dihydro-7(5-methyl-2,5-diazabicyclo(2.2.1)hept-2-yl)-4-oxoquinoline-3-carboxylic acid]
- MIC50 ([3]; Staphylococcus aureus, MSSA): 0.25 µg/mL (≈ 0.608 µM)
- MIC90 ([3]; Staphylococcus aureus, MSSA): 0.5 µg/mL (≈ 1.22 µM)
- MIC50 ([4]; Staphylococcus aureus, MRSA): 0.25 µg/mL (≈ 0.608 µM)
- MIC90 ([4]; Staphylococcus aureus, MRSA): 1 µg/mL (≈ 2.43 µM)
- MIC50 ([5]; Streptococcus): 1 µg/mL (≈ 2.43 µM)
- MIC90 ([5]; Streptococcus): 4 µg/mL (≈ 9.72 µM)
- MIC50 ([6]; read-out: MIC, 50% Inhibitious): 1 µg/mL (≈ 2.43 µM)
- MIC90 ([6]; read-out: MIC, 90% Inhibitious): 2 µg/mL (≈ 4.86 µM)
- MIC50 [7]: 4 µg/mL (≈ 9.72 µM)
- MIC90 [7]: 8 µg/mL (≈ 19.4 µM)
- MIC50 ([1]; read-out: MIC, 50% Inhibitious): 4 µg/mL (≈ 9.72 µM)
- MIC90 ([1]; read-out: MIC, 90% Inhibitious): 4 µg/mL (≈ 9.72 µM)
- MIC50 ([2]; Bacteroides): 8 µg/mL (≈ 19.4 µM)
- MIC90 ([2]; Bacteroides): 8 µg/mL (≈ 19.4 µM)
